The source of these data is article PMC11107383, “Integrating Reinforcement Learning and Monte Carlo Tree Search for enhanced neoantigen vaccine design” (Briefings in Bioinformatics, 2024).

Entries after “also recorded” stand apart in the source; their conditions may differ. Ends that are not written are not given here.

In test [1] the target is T1, HLA-A^*11:01 (Homo sapiens, UniProt P04439, A114D/D185E/E176A/F33Y/L180Q/S129P/T187R). Put plainly: Peptide competitive binding assay (FITC-labeled reference peptide KVFPKALINK, flow cytometry) in HMy2.CIR cells expressing HLA-A^*11:01. As to conditions: 24 h, 4°C; for shift in the fluorescence (flow cytometry): FITC-labeled reference peptide displaced; for 5 μM Inhibition (%): competitor 5 μM. A general note: Flow cytometry measures light scatter and fluorescence of single cells or particles in a stream.

The target of test [2] is T1, HLA-A^*11:01. As to conditions: in vitro peptide-binding assay; cited from earlier work. An excerpt:
(§1) A peptide sequence, ELQRREVYK, originating from the E6 oncoprotein of HPV type 52, has been recognized as an HLA-A^*11:01-restricted peptide through an in vitro peptide-binding assay. […] Considering the high prevalence of HLA-A^*11:01 allele (21.143%) in the Chinese pop ...

For the next test, the system named is T-cell responses. As to conditions: IFN-γ ELISPOT; HLA-A^*11:01 pair; cited from earlier work.
Source text: as §1

[3] abbreviates: FITC-labeled reference peptide KVFPKALINK 300 nM, flow cytometry.

By IC50 is commonly meant the concentration at which inhibition is half-maximal. Lower therefore signals inhibition by little substance. For the sequence ALQRREVYK [ALQRREVYK], the “shift in the fluorescence (flow cytometry)” value is on record as “leftward shift in the fluorescence intensity” on HLA-A^*11:01 [1] and “leftward shift in the fluorescence peak” at HLA-A^*11:01 [1] (listed as mutated peptide). This sequence showed an IC50 on HLA-A^*11:01 [1] (bracketed from 5 and 15 μM inhibition) of 5 to 15 µM. In addition, the “5 μM Inhibition (%)” value at HLA-A^*11:01 [1] (setting [3]) was found to be 44.83%. For the same sequence, on HLA-A^*11:01 [1] (competitor 15 μM, FITC-labeled reference peptide KVFPKALINK 300 nM, flow cytometry), the “15 μM Inhibition (%)” value is recorded as 77.55%.
For the sequence “ELQRREVYK [peptide originating from the E6 oncoprotein of HPV type 52]”, the “shift in the fluorescence (flow cytometry)” value with HLA-A^*11:01 [1] was “does not exhibit a discernible shift; also recorded: no discernible shift”. In addition, the “5 μM Inhibition (%)” value with HLA-A^*11:01 [1] (setting [3]) stood at 24.21%. Besides, in the test with HLA-A^*11:01 [2], the HLA restriction entry is recorded as “HLA-A^*11:01-restricted”. For the same sequence, the T-cell response entry in the test on T-cell responses is on record as “does not elicit positive T-cell responses”.
